`Cc1ccccc1N(CCC(=O)O)C(=O)Cl`: the melting point was determined as 112 °C.
`CCCCc1cc(OCc2ccc(C#N)cc2)c2ccccc2n1` came in with a melting point of 74 °C.
Take `c1ccc(Nc2nnc(-c3cccnc3)s2)cc1`: the melting point fell in the range of 252 to 255 °C.
In the case of `CCc1nc2c(N)nc3ccccc3c2n1Cc1cc(-c2ccc(F)cc2)no1`, the melting point was in the range of 232 to 233 °C.
`Nc1c(Cl)cnc(OCC(=O)O)c1Cl`: the melting point lay within 200 to 201 °C.
The molecule `Nc1ccc(C(O)C(CO)N2CCC(Cc3ccccc3)CC2)cc1` (stereo unspecified) registered a melting point of 62 to 68 °C.
In turn, `CN(C)CCCC(=O)OC[C@@H]1CC(c2ccc(-c3ccc(N4C[C@H](Cn5ccnn5)OC4=O)cc3F)cn2)=NO1` yielded a melting point of 148 °C.
In the case of `CC(C)=CCn1ncc(-c2ccc(S(N)(=O)=O)c(F)c2)c(-c2ccc(F)cc2)c1=O` it was 134 to 136 °C.
In turn, `COc1ccc(C2=NN(C3CCN(C(=O)[C@H](C)NC(=O)NC(C)(C)C)CC3)C(=O)[C@@H]3CC=CC[C@H]23)cc1OC` had a melting point of 153 to 154 °C.
Next, `CCCc1nc2c(N)nc3cc(OCCN4CCOCC4)ccc3c2s1`: 122 to 125 °C; `Cc1cc(CCCCCOc2ccc(-c3nc(C)c(C)s3)cc2)on1`: 96 to 97 °C.
In turn, `CN(N=Cc1ccc([N+](=O)[O-])cc1)C1=NOCc2ccc(Cl)cc21` had a melting point of 251 °C.
Regarding `O=C(Cl)N1CC(Oc2ccccc2Cl)C1`, the melting point was 80 to 82 °C.
In the case of `Clc1ccc(-c2oncc2-c2ccncc2)cc1` it was 121 °C; in that of `NC(=O)N(O)CCNC(=O)c1cccc(Oc2ccccn2)c1`, 159 to 160 °C.
`CNc1cccc(F)c1C#N` registered a melting point of 130 to 132 °C.
In the case of `CN1CCC(c2ccc(Cl)c(Cl)c2)C(CO)C1` (stereo unspecified) it was 109 to 111 °C; in that of `OC(Cc1ccc(Cl)cc1)Cn1cncn1` (stereo unspecified), 104 to 106 °C; in that of `CCOC(C)COC1CCNCC1` (stereo unspecified), 68 to 70 °C.
`CCOc1cc2c(cc1S(=O)(=O)NC(=O)NC)C(CNC(=O)c1cc(Cl)ccc1OC)CCO2` (stereo unspecified) registered a melting point of 207 to 208 °C.
`CS(=O)(=O)N1C[C@@H](P(=O)(c2ccccc2)c2ccccc2)C[C@H]1CO` showed a melting point of 138 to 139 °C.
In the case of `O=C1NC(=O)C(S(=O)c2ccc3ccccc3c2)S1` (stereo unspecified), the melting point fell in the range of 157 to 158 °C.
`O=C(NC(=O)c1ccccc1Cl)Nc1ccc(C(F)(F)F)cc1` returned a melting point of 214 °C.
As to `Cc1nc(N2CCN(CC3CC3)C2=O)sc1-c1cc[nH]n1`, the melting point was in the range of 169 to 171 °C.
As for `O=C1c2ccccc2C(=O)N1CC(=O)N1c2ccccc2N(Cc2ccccn2)C(=O)[C@H]2CCC[C@H]21` (relative stereo), the melting point lay in the range of 227 to 229 °C.
In the case of `Cc1cc2c3c(c1)C(c1ccccc1)C(=O)N3CC(=O)N2` (stereo unspecified), the melting point lay within 195 to 200 °C.
Next, `CCc1cc(Oc2c(Cl)cc(C(F)(F)F)cc2Cl)n[nH]1`: 118 to 121 °C; `N#CSc1cc(-c2ccccc2)c(O)c(-c2ccccc2)c1`: 104 to 106 °C.
As to `O=C1CCC(N2Cc3c(OCc4ccc(CNCCO)cc4)cccc3C2=O)C(=O)N1` (stereo unspecified), the melting point lay in the range of 251 to 253 °C.
Regarding `CSc1ccc2cc(Nc3ccc(O)cc3)ccc2c1`, the melting point was in the range of 127 to 128 °C.
Consider `Brc1cc2nc(NC3=NCCN3)[nH]c2cc1Br`, for which the melting point fell in the range of 261 to 267 °C.
`COc1ccc2c(c1)c1c(n2C(=O)c2ccc(Cl)cc2)CCC(C(=O)O)C1` (stereo unspecified): the melting point is 269 to 273 °C.
Take `CCCC(C)(C)C(O)C(c1cccc(Cl)c1)n1cnc(C)c1` (stereo unspecified): the melting point lay in the range of 121 to 122 °C.
The molecule `OC1(c2ccccc2Cc2ccccc2)CCN(CC2CC2)C1` (stereo unspecified) had a melting point of 118 to 120 °C.
`COc1cc(CO)ccc1OCc1nc(-c2ccccc2)cn1C` displayed a melting point of 126 to 127 °C.
The molecule `COC(=O)c1cc(-c2cccc(C(F)(F)F)c2)c(=O)n2c1-c1sccc1SCC2` showed a melting point of 190 to 191 °C.
In turn, `Cc1ccccc1-c1ccc(C(=O)N2Cc3ccc(C(=O)CCc4cccnc4)n3Cc3ccccc32)cc1` yielded a melting point of 135 to 136 °C.
`COc1ccc(C(=O)c2ccccc2N)cc1` displayed a melting point of 76 to 77 °C.
Take `COC(=O)c1cccc(NC(=O)CSC(C)=O)c1`: the melting point was in the range of 118 to 120 °C.
In turn, `O=C(O)C1=Cc2c(Cl)ccc(Cl)c2OC1C(F)(F)F` (stereo unspecified) came in with a melting point of 206 to 207 °C.
`FC(F)(F)Oc1cccc(-c2nc(-c3ccccn3)no2)c1` displayed a melting point of 86 to 88 °C.
`CNc1nc(-c2ccc(-c3ccccc3)s2)c2cc(OC)c(OC)cc2n1` returned a melting point of 201 to 203 °C.
`O=C(NN=Cc1cccc2ccccc12)c1cc2ccccc2cc1O`: the melting point worked out at 214 °C.
`COc1ccccc1NC(=O)c1cccc(CO)c1` yielded a melting point of 102 °C.
Next, `C#CCN(c1ccc(C(=O)OC(C)(C)C)cc1)C1CCc2cc3nc(C)[nH]c(=O)c3cc21` (racemic): 244 to 246 °C; `O=C1c2cccc(O)c2Cc2cccc(O)c21`: 231 to 233 °C; `Cc1ccc(C(=O)c2cnn3c(-c4cccc(NC(=O)C5CC5)c4)ccnc23)s1`: 243 to 245 °C.
Take `COc1ccc(Cn2ncc3nc(Cl)nc(Cl)c32)cc1`: the melting point lay in the range of 100 to 101 °C.
Next, `COc1ccc(-c2cc(F)cc3c2NC(CN)CO3)c(C)c1` (stereo unspecified): 82 °C.
As to `CCCCC(=O)N(Cc1ccc(-c2ccccc2-c2nnn[nH]2)cc1)C(C(=O)OCc1ccccc1)C(C)C` (stereo unspecified), the melting point fell in the range of 106 to 108 °C.
`Cc1c(C)c2ccc(OCCCN3CCC(N)CC3)cc2oc1=O` gave a melting point of 92 to 94 °C.
On to `CCOc1nc(-c2ccc(F)cc2C)c2ccc(=O)n(-c3ccccc3F)c2n1`, for which the melting point fell in the range of 137 to 139 °C.
Next, `Cc1nc2ccc3c(c2o1)OC(CN1CCC2(CC1)C(=O)NCN2c1ccccc1)CO3` (stereo unspecified): 240 °C; `COc1ccc2c(c1)C(Cc1ccnc(F)c1)(Cc1ccnc(F)c1)c1cccnc1O2`: 196 to 197 °C.
In turn, `Clc1cccc(-n2ccnc2)n1` yielded a melting point of 71 to 73 °C.
As to `CC(SSc1ccccc1C(=O)Nc1ccc(S(N)(=O)=O)cc1)C(=O)O` (stereo unspecified), the melting point fell in the range of 268 to 270 °C.
Next, `COc1nc(C(F)(F)C(F)(F)F)cc(=O)n1-c1cc(O)c(Cl)cc1F`: 143 to 145 °C.
On to `CC(=O)Nc1ccc(C(=O)N2CC3CC(CN(Cc4ccccc4)C3)C2)cc1`, for which the melting point was 208 °C.
Next, `CCCCCCCCCCCCCCCCCCOc1ccc(OCCCOc2ccc(OCc3ccccc3)cc2)c(C(=O)OC)c1`: 79 to 81 °C; `CC(C)(C)c1nc(C(=O)c2cc[nH]n2)nc(C(C)(C)C)c1O`: 156 to 161 °C.
In the case of `O=C(O)C1=Cc2cc([N+](=O)[O-])ccc2OC1C(F)(F)F` (stereo unspecified), the melting point is 187 to 189 °C.
The molecule `Cn1ncc(C(=O)N2CCC2)c1C(=O)Nc1ccn2nc(N3CCCC3)nc2c1` came in with a melting point of over 250 °C.
The molecule `O=C(c1ccc(-c2ccc3c(c2)CCN(C2CCN(Cc4ccccc4)CC2)C3=O)cc1)N1CCCC1` came in with a melting point of 197 to 198 °C.
`CCc1c(Br)sc2[nH]c(=O)c(=O)[nH]c12` showed a melting point of 295 to 297 °C.
Next, `O=C1CCCc2nc3cc(F)ccc3c(NCc3ccccc3C(F)(F)F)c21`: 146 to 151 °C.
`Cc1nn(C)c(C)c1-c1ccc(OC2SCC(O)C(O)C2O)cn1` (stereo unspecified) had a melting point of 132 °C.
`CCCCCCCCCCCCCCCCCCOc1cc(C(=O)O)cc(N(CC(=O)O)CC(=O)O)c1` yielded a melting point of 149 to 155 °C.
With `Cc1cn(C(C)C(=O)N2CCOCC2)nc1-c1ccccc1` (stereo unspecified), the melting point lay in the range of 84 to 96 °C.
On to `O=C(NCCCCCNc1c([N+](=O)[O-])cnc2ccccc12)c1ccccc1`, for which the melting point lay in the range of 130 to 132 °C.
Molecule `CCOc1ccc(C(=O)NCc2ccc3c(c2)C(=O)N(C2(C)CCC(=O)NC2=O)C3=O)cc1` (stereo unspecified) registered a melting point of 163 to 165 °C.
In the case of `O=C1CSC(=S)N1c1cccc(C(F)(F)F)c1`, the melting point was in the range of 177 to 178 °C.
In the case of `OCCCCCCCCCCCN1CCCCC1` it was 62 to 65 °C; in that of `CCN(CC)CCOC(=C1C2CC3C(C2)C13)c1ccccc1`, 120 to 123 °C.
`CN=C(NC#N)NCCSCc1ncccc1Br` came in with a melting point of 114 to 116 °C.
On to `CC(Cn1cc(Sc2ccccc2)c2ccccc21)N(O)C(N)=O` (stereo unspecified), for which the melting point was 73 to 76 °C.
On to `CNC(=O)Oc1ccc2c(c1)c1c(n2C)CC(CO)C1` (stereo unspecified), for which the melting point is 137 to 138 °C.
As to `CCOC(=O)c1ncc2c(c1COC)c1c(OS(=O)(=O)C(F)(F)F)cccc1n2S(=O)(=O)C(F)(F)F`, the melting point was 60 to 62 °C.
Molecule `CC(SC1COC(C=CC=Cc2ccc(C#N)cc2F)OC1)C(O)(Cn1cncn1)c1ccc(F)cc1F` (stereo unspecified) returned a melting point of 111 to 112 °C.
The molecule `O=C(O)c1cccnc1C(=O)c1ccccc1` showed a melting point of 115 to 121 °C.
Regarding `COc1cc(C(C)N(O)C(N)=O)ccc1OCCc1ccccc1` (stereo unspecified), the melting point lay in the range of 112 to 115 °C.
`CCCNC(=S)Nc1ccc(Oc2nc(OC)cc(OC)n2)c(C(=O)OC)n1` displayed a melting point of 218 to 220 °C.
`C=Cc1ccccc1N1CCCCC1` came in with a melting point of 147 to 150 °C.
Regarding `O=C(NC(=O)c1cc(F)c(Cl)nc1Cl)NC1CC1`, the melting point lay in the range of 171 to 173 °C.
Next, `O=c1c2ccccc2sc2c(O)ccc(Cl)c12`: 260 to 265 °C; `Cc1cc2c(cc1C1=NNC(=O)CC1C)NC(=O)C(C)O2` (stereo unspecified): 190 to 191 °C; `N#CC(N)=C(C#N)N=Cc1cnn(-c2c(Cl)cc(OC(F)(F)F)cc2Cl)n1`: 199 to 201 °C.
Next, `Oc1ccc(N2CCN(n3ccnc3)CC2)cc1`: 282 °C; `CCCCCCCCCCCCCCOc1ccc(CO)cc1`: 72 to 74 °C; `CCN(CC)OC(C(=O)O)(C(=O)O)c1ccccc1`: over 250 °C.
Consider `CN1C(=O)C(=NC(Cl)=C(Cl)Cl)N(c2ccc(Cl)cc2)C1=O`, for which the melting point was in the range of 108 to 110 °C.
In the case of `COC(=O)COc1ccc(C(=O)NNC(=O)c2ccc(C(=N)SC)cc2)cc1`, the melting point fell in the range of 208 to 210 °C.

(Values after a melting point compilation (Tetko et al.; mined from patent text by program, amines drawn as free bases though some values may be those of a salt).)
